Data: patent publication US6943025B2, “Method for identifying genes involved in cell proliferation” (Children's Medical Center Corporation, priority 2001, dated 2005)

What was measured:
[1] = system: zebrafish embryos; conditions: literature reports; cited from earlier work
[2] = system: Wild-type fish; conditions: zebrafish, in vivo
[3] = system: zebrafish mutant strains and wild-type; experiment: Carcinogenesis assay in mutant strains (carcinogen induced tumorigenesis, Table II); conditions: 21 day-old fry
[4] = SQW 61, 5.0 ppm DMBA 24 hours, three months post-treatment
[5] = SQW 213, 5.0 ppm DMBA 24 hours, three months post-treatment
[6] = SQW 226, 5.0 ppm DMBA 24 hours, three months post-treatment
[7] = SQW 280, 5.0 ppm DMBA 24 hours, three months post-treatment
[8] = WT, 5.0 ppm DMBA 24 hours, 6 months post-treatment

CC[C@@]1(O)C(=O)OCc2c1cc1n(c2=O)Cc2cc3ccccc3nc2-1 [Camptothecin]
effect on zebrafish embryos (checkpoint, apoptosis) [1]: produces DNA strand breaks, resulting in subsequent apoptosis

Cc1c2ccccc2c(C)c2c1ccc1ccccc12 [DMBA, 7,12 dimethylbenzanthracene]
fish that developed tumors ([2]; wild-type): 10.4%
fish that developed tumors / fish treated ([2]; wild-type): 9/86
tumor seen in tissue sections (histology) [2]: medulloblastoma
tumor types produced [2]: more brain and liver tumors
# tumors [3, 4]: 24
% tumors [3, 4]: 18%
# tumors [3, 5]: 2
% tumors [3, 5]: 7%
# tumors [3, 6]: 4
% tumors [3, 6]: 20%
# tumors [3, 7]: 6
% tumors [3, 7]: 12%
# tumors [3, 8]: 2
% tumors [3, 8]: 5%

C[C@@]1(CO)[C@H](O)CC[C@@]2(C)[C@H]1CC[C@H]1C[C@@H]3C[C@@]12CC[C@]3(O)CO [aphidicolin]
effect on zebrafish embryos (checkpoint, apoptosis) [1]: cause apoptosis

NC(=O)NO [hydoxyurea]
effect on zebrafish embryos (checkpoint, apoptosis) [1]: cause apoptosis

COC(=O)Nc1nc2cc(C(=O)c3cccs3)ccc2[nH]1 [nocodozolc]
effect on zebrafish embryos (checkpoint, apoptosis) [1]: destabilized microtubules and the activation of a mitotic checkpoint
